Source: the supplement of paper PMC7108870

Columns and labels:
[1] = tested on: HEK293sieSTAT3(wt); assay: drug sensitivity score (DSS), cytotoxicity CellTox Green (DSS (dimensionless)); higher = more cytotoxic; extreme values may be limits of the assay; settings: 72 h; STAT3 variant: wild type
Outline: (§1)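 Compounds were acoustically pre-plated in 384-well plates at 5 concentrations spaced by 10-fold dilutions, and HEK293 cells overexpressing wild-type or mutant STAT3 and carrying a STAT3-dependent luciferase reporter were added at 100,000 cells/ml in 20 μl. After 72 hours at 37°C and 5% CO2, the plates were read on a PHERAstar FS for CellTox Green fluorescence (485/520 nm) and then CellTiter-Glo luminescence. A drug sensitivity score derived from dose-response curve area was calculated in Breeze from values normalised to negative and positive control wells.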

[2] = tested on: HEK293sieSTAT3(Y640F); assay: as above; settings: 72 h; STAT3 variant: Y640F (constitutively active)
Outline: as §1

[3] = tested on: HEK293sieSTAT3(wt); assay: drug sensitivity score (DSS), viability CellTiter-Glo (DSS (dimensionless)); higher = more growth inhibition; extreme values may be limits of the assay; settings: 72 h; STAT3 variant: wild type
Outline: as §1

[4] = tested on: HEK293sieSTAT3(Y640F); assay: as above; settings: 72 h; STAT3 variant: Y640F (constitutively active)
Outline: as §1

Row | Compound | drug sensitivity score [1] | drug sensitivity score [2] | drug sensitivity score [3] | drug sensitivity score [4]
1 | Cn1c(=O)n(-c2ccc(C(C)(C)C#N)cc2)c2c3cc(-c4cnc5ccccc5c4)ccc3ncc21 [Dactolisib] (top concentration tested 1000 nM) | 2.88 | 0 | 23 | 19.3
2 | CO[C@@H](C(=O)N1Cc2[nH]nc(NC(=O)c3ccc(N4CCN(C)CC4)cc3)c2C1)c1ccccc1 [Danusertib] (top concentration tested 10000 nM) | 11.8 | 0 | 7.14 | 6.46
3 | O=C(/C=C/c1cccnc1)NCCCCC1CCN(C(=O)c2ccccc2)CC1 [Daporinad] (top concentration tested 1000 nM) | 0 | 3.19 | 32.8 | 32.8
4 | CCN(CC)CCN(Cc1ccc(-c2ccc(C(F)(F)F)cc2)cc1)C(=O)Cn1c(SCc2ccc(F)cc2)nc(=O)c2c1CCC2 [Darapladib] (top concentration tested 1000 nM) | 0.65 | 1.32 | 1.03 | 1.89
5 | Cc1nc(Nc2ncc(C(=O)Nc3c(C)cccc3Cl)s2)cc(N2CCN(CCO)CC2)n1 [Dasatinib] (top concentration tested 1000 nM) | 1.81 | 0 | 2.74 | 6.45
6 | COc1cccc2c1C(=O)c1c(O)c3c(c(O)c1C2=O)C[C@@](O)(C(C)=O)C[C@@H]3O[C@H]1C[C@H](N)[C@H](O)[C@H](C)O1 [Daunorubicin] (top concentration tested 1000 nM) | 0 | 0 | 24 | 21.9
7 | Nc1ncn([C@H]2C[C@H](O)[C@@H](CO)O2)c(=O)n1 [Decitabine] (top concentration tested 10000 nM) | 3.31 | 0.02 | 10.4 | 7.35
8 | CC(=O)N(O)CCCCCNC(=O)CCC(=O)N(O)CCCCCNC(=O)CCC(=O)N(O)CCCCCN [Deferoxamine] (top concentration tested 10000 nM) | 1.09 | 0.01 | 3.23 | 2.48
9 | C[C@@H]1C[C@H]2[C@@H]3CCC4=CC(=O)C=C[C@]4(C)[C@@]3(F)[C@@H](O)C[C@]2(C)[C@@]1(O)C(=O)CO [Dexamethasone] (top concentration tested 10000 nM) | 0 | 0 | 2.01 | 3
10 | CCc1cnn2c(NCc3ccc[n+]([O-])c3)cc(N3CCCC[C@H]3CCO)nc12 [Dinaciclib] (top concentration tested 1000 nM) | 24.6 | 7.03 | 28.8 | 27.9
11 | CCN(CC)C(=S)SSC(=S)N(CC)CC [Disulfiram] (top concentration tested 100000 nM) | 30.4 | 30.9 | 30.2 | 31.1
12 | CC(=O)O[C@@]12CO[C@@H]1C[C@H](O)[C@@]1(C)C(=O)[C@H](O)C3=C(C)[C@@H](OC(=O)[C@H](O)[C@@H](NC(=O)OC(C)(C)C)c4ccccc4)C[C@@](O)([C@@H](OC(=O)c4ccccc4)[C@H]21)C3(C)C [Docetaxel] (top concentration tested 1000 nM) | 11.3 | 1.47 | 31 | 22.8
13 | Cc1ccc(-n2nc(C(C)(C)C)cc2NC(=O)Nc2ccc(OCCN3CCOCC3)c3ccccc23)cc1 [Doramapimod] (top concentration tested 10000 nM) | 0 | 0.14 | 3.87 | 5.05
14 | CN1CCN(c2ccc3nc(-c4c(N)c5c(F)cccc5[nH]c4=O)[nH]c3c2)CC1 [Dovitinib] (top concentration tested 10000 nM) | 0 | 0 | 0 | 0.03
15 | COc1cccc2c1C(=O)c1c(O)c3c(c(O)c1C2=O)C[C@@](O)(C(=O)CO)C[C@@H]3O[C@H]1C[C@H](N)[C@H](O)[C@H](C)O1 [Doxorubicin] (top concentration tested 1000 nM) | 0 | 0 | 19.3 | 18.6
16 | C[C@H](Nc1ncnc2nc[nH]c12)c1cc2cccc(Cl)c2c(=O)n1-c1ccccc1 [Duvelisib] (top concentration tested 500 nM) | 0 | 0 | 2.36 | 3.95
17 | Cc1cc(Nc2cc(N3CCN(C)CC3)nc(/C=C/c3ccccc3)n2)n[nH]1 [ENMD-2076] (top concentration tested 10000 nM) | 5.35 | 0.61 | 10.7 | 9.67
18 | Cc1cc(C)c(CNC(=O)c2cc(-c3ccc(CN4CCOCC4)cc3)cc3c2cnn3C2CCCC2)c(=O)[nH]1 [EPZ-5687] (top concentration tested 10000 nM) | 0 | 0 | 0 | 0
19 | COC(=O)N[C@@H](C)CNc1nccc(-c2cn(C(C)C)nc2-c2cc(Cl)cc(NS(C)(=O)=O)c2F)n1 [Encorafenib] (top concentration tested 1000 nM) | 0 | 0 | 3.05 | 0.92
20 | Nc1ccccc1NC(=O)c1ccc(CNC(=O)OCc2cccnc2)cc1 [Entinostat] (top concentration tested 10000 nM) | 1.29 | 0.1 | 8.98 | 8.12
21 | c1cn2cc(-c3ccc4cn[nH]c4c3)nc(Nc3ccc(N4CCOCC4)cc3)c2n1 [Entospletinib] (top concentration tested 5000 nM) | 0 | 0 | 0 | 0

Row | Compound | drug sensitivity score [1] | drug sensitivity score [2] | drug sensitivity score [3] | drug sensitivity score [4]
22 | CNC(=O)c1ccc(N2C(=S)N(c3ccc(C#N)c(C(F)(F)F)c3)C(=O)C2(C)C)cc1F [Enzalutamide] (top concentration tested 10000 nM) | 0 | 0 | 0 | 0.6
23 | Cn1cc(C2=C(c3cn(C4CCN(Cc5ccccn5)CC4)c4ccccc34)C(=O)NC2=O)c2ccccc21 [Enzastaurin] (top concentration tested 10000 nM) | 0 | 0 | 1.34 | 1.73
24 | NS(=O)(=O)NCCNc1nonc1/C(=N/O)Nc1ccc(F)c(Br)c1 [Epacadostat] (top concentration tested 10000 nM) | 0 | 0 | 0.37 | 1.76
25 | C#Cc1cccc(Nc2ncnc3cc(OCCOC)c(OCCOC)cc23)c1 [Erlotinib] (top concentration tested 10000 nM) | 0 | 0 | 2.99 | 3.21
26 | C[C@]12CC[C@@H]3c4ccc(OC(=O)N(CCCl)CCCl)cc4CC[C@H]3[C@@H]1CC[C@@H]2O [Estramustine] (top concentration tested 10000 nM) | 0.3 | 0 | 0 | 0.65
27 | COc1cc([C@@H]2c3cc4c(cc3[C@@H](O[C@@H]3O[C@@H]5CO[C@@H](C)O[C@H]5[C@H](O)[C@H]3O)[C@H]3COC(=O)[C@H]23)OCO4)cc(OC)c1O [Etoposide] (top concentration tested 10000 nM) | 7.94 | 3.46 | 20 | 17.6
28 | CO[C@H]1C[C@@H]2CC[C@@H](C)[C@@](O)(O2)C(=O)C(=O)N2CCCC[C@H]2C(=O)O[C@H]([C@H](C)C[C@@H]2CC[C@@H](OCCO)[C@H](OC)C2)CC(=O)[C@H](C)/C=C(\C)[C@@H](O)[C@@H](OC)C(=O)[C@H](C)C[C@H](C)/C=C/C=C/C=C/1C [Everolimus] (top concentration tested 100 nM) | 0 | 0 | 11.3 | 8.23
29 | C=C1C[C@@H]2[C@H](CC[C@]3(C)C(=O)CC[C@@H]23)[C@@]2(C)C=CC(=O)C=C12 [Exemestane] (top concentration tested 10000 nM) | 0 | 0 | 3.65 | 3.39
30 | Cc1nc(C(=O)NCC(=O)O)c(O)c2ccc(Oc3ccccc3)cc12 [FG-4592] (top concentration tested 10000 nM) | 0 | 0 | 2.23 | 1.3
31 | CCn1c(=O)c(-c2ccc(Cl)cc2Cl)cc2cnc(Nc3ccc(N4CCNCC4)c(F)c3)nc21 [FRAX486] (top concentration tested 5000 nM) | 6.75 | 0 | 9.57 | 6.38
32 | O=S(=O)(c1cccc2cnccc12)N1CCCNCC1 [Fasudil] (top concentration tested 50000 nM) | 4.45 | 2.11 | 3.23 | 4.74
33 | Cc1cnc(Nc2ccc(OCCN3CCCC3)cc2)nc1Nc1cccc(S(=O)(=O)NC(C)(C)C)c1 [Fedratinib] (top concentration tested 10000 nM) | 9.22 | 5.36 | 8.5 | 7.35
34 | CON(C)C(=O)N1N=C(c2cc(F)ccc2F)S[C@@]1(CCCN)c1ccccc1 [Filanesib] (top concentration tested 1000 nM) | 17 | 0.58 | 21.2 | 15
35 | O=C(Nc1nc2cccc(-c3ccc(CN4CCS(=O)(=O)CC4)cc3)n2n1)C1CC1 [Filgotinib] (top concentration tested 10000 nM) | 6.22 | 5.91 | 6.84 | 8.86
36 | CC(C)(C)NC(=O)[C@H]1CC[C@H]2[C@@H]3CC[C@H]4NC(=O)C=C[C@]4(C)[C@H]3CC[C@]12C [Finasteride] (top concentration tested 10000 nM) | 1.18 | 0.18 | 1.63 | 3.82
37 | CCCCCCCCc1ccc(CCC(N)(CO)CO)cc1 [Fingolimod] (top concentration tested 10000 nM) | 7.2 | 5.85 | 8.27 | 6.17
38 | O=c1[nH]c(=O)n([C@H]2C[C@H](O)[C@@H](CO)O2)cc1F [Floxuridine] (top concentration tested 10000 nM) | 1.28 | 0.42 | 29 | 27.2
39 | Nc1nc(F)nc2c1ncn2[C@@H]1O[C@H](CO)[C@@H](O)[C@@H]1O [Fludarabine] (top concentration tested 10000 nM) | 0 | 0 | 3.07 | 0.19
40 | O=c1[nH]cc(F)c(=O)[nH]1 [Fluorouracil] (top concentration tested 10000 nM) | 0 | 0 | 6.27 | 6.62
41 | CC(C)C(=O)Nc1ccc([N+](=O)[O-])c(C(F)(F)F)c1 [Flutamide] (top concentration tested 10000 nM) | 0 | 0 | 0 | 0.25
42 | COc1cc2c(Oc3ccc(NC(=O)C4(C(=O)Nc5ccc(F)cc5)CC4)cc3F)ccnc2cc1OCCCN1CCOCC1 [Foretinib] (top concentration tested 1000 nM) | 5.97 | 0 | 5.99 | 6.63
